Reference: paper PMC3103057 (Journal of medicinal chemistry, 2011)
pIC50: −log10 of the molar value.

What was measured:
purified GC = assay: Purified enzyme assays of GC activity without exogenous cofactors; assay type: biochemical; conditions: no exogenous activating cofactors
[1] = system: wildtype and homozygous mutant N370S GC fibroblasts; assay: Chaperone activity: translocation of GC to the lysosome in fibroblasts; assay type: cell-based, human; conditions: for amount of GC localized to the lysosome: 1 nM to 25 uM, five days incubation, wildtype and mutant fibroblasts; for lysosomal GC protein after treatment: 10 uM, wildtype and N370S GC fibroblasts, GC and LAMP1 antibody staining
[2] = target: T1, N370S glucocerebrosidase (GC) in tissue homogenate (Homo sapiens, UniProt P04062, N409S); assay type: biochemical; conditions: for reduction of activity (fold, relative to 26ad): N370S tissue homogenate AC50 compared with parent quinazoline 26ad
T1 sequence (P04062 40-536 N409S): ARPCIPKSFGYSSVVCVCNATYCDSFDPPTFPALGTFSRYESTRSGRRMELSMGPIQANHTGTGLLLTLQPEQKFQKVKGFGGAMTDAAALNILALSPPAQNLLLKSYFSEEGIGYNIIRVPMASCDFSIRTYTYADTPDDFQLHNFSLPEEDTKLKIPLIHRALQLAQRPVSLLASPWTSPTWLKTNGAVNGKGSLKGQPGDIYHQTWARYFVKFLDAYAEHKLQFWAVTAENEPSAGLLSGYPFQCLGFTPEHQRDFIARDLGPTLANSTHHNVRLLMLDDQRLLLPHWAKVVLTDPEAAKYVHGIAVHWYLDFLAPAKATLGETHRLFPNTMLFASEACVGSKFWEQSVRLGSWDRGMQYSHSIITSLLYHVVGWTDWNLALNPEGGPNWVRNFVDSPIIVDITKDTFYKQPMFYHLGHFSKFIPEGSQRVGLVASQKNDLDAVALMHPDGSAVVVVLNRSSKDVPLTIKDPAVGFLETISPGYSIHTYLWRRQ

reduction of activity (fold, relative to 26ad) [2]	SMILES	amount of GC localized to the lysosome [1]	further results
	O=S(=O)(c1ccc(Cl)cc1)N1CCN(c2nc(-c3cccs3)nc3ccccc23)CC1 [Compound 10, 4-(4-(4-chlorophenylsulfonyl)piperazin-1-yl)-2-(thiophen-2-yl)quinazoline]		activity in purified enzyme assays of GC compared with tissue homogenate (purified GC): greatly diminished
	COc1ccccc1S(=O)(=O)N1CCN(c2nc(-c3cccs3)nc3ccccc23)CC1 [Compound 26ai, 4-(4-(2-methoxyphenylsulfonyl)piperazin-1-yl)-2-(thiophen-2-yl)quinazoline]	clear increase of the amount of GC localized to the lysosome	
32 times	Cc1ccc(S(=O)(=O)N2CCN(c3ccnc(-c4cccs4)n3)CC2)cc1 [Compound 74, 2-(thiophen-2-yl)-4-(4-tosylpiperazin-1-yl)pyrimidine]		
	O=S(=O)(c1ccc2c(c1)OCCO2)N1CCN(c2nc(-c3cccs3)nc3ccccc23)CC1 [Compound 26bs, 4-(4-(2,3-dihydrobenzo[b][1,4]dioxin-6-ylsulfonyl)piperazin-1-yl)-2-(thiophen-2-yl)quinazoline]	clear increase of the amount of GC localized to the lysosome	
at least 10 times	Cc1ccc(S(=O)(=O)N2CCN(c3nc(-c4cccs4)nc4cccnc34)CC2)cc1 [Compound 72, 2-(thiophen-2-yl)-4-(4-tosylpiperazin-1-yl)pyrido[3,2-d]pyrimidine]		
	Cc1ccc(S(=O)(=O)N2CCN(c3nc(-c4cccs4)nc4ccccc34)CC2)cc1 [Compound 26ad, 4-(4-(4-methylphenylsulfonyl)piperazin-1-yl)-2-(thiophen-2-yl)quinazoline]	clear increase of the amount of GC localized to the lysosome	pIC50 ([2]; "blue" GC enzyme assay, tissue homogenate): 6.49
	O=S(=O)(c1ccc2ccccc2c1)N1CCN(c2nc(-c3cccs3)nc3ccccc23)CC1 [Compound 14]	clear increase of the amount of GC localized to the lysosome	lysosomal GC protein after treatment [1]: increased lysosomal GC protein
at least 10 times	Cc1ccc(S(=O)(=O)N2CCN(c3nc(-c4cccs4)nc4ncccc34)CC2)cc1 [Compound 73, 2-(thiophen-2-yl)-4-(4-tosylpiperazin-1-yl)pyrido[2,3-d]pyrimidine]		
10 times	Cc1ccc(S(=O)(=O)N2CCN(c3nc(-c4cccs4)nc(C)c3C)CC2)cc1 [Compound 76, 4,5-dimethyl-2-(thiophen-2-yl)-6-(4-tosylpiperazin-1-yl)pyrimidine]		
	OC[C@H]1CNC[C@@H](O)[C@@H]1O [Isofagomine, reference compound]		lysosomal GC protein after treatment [1]: increased lysosomal GC protein
